Test results as given in paper PMC6985185 (Breast cancer research and treatment, 2019).
“And” between values parts separate entries of the source, which are not always exact repeats. Equal values may be shown once.

What was measured:
[1] = system: TamR (tamoxifen resistant) xenograft tumors; experiment: TamR Study 1: growth of tamoxifen-resistant xenograft tumors under fulvestrant; assay type: in vivo, Nu:J mice
[2] = Circulating plasma levels of fulvestrant after a single injection (LC/MS/MS); assay type: in vivo, Nu:J mice; settings: single injection of 25 or 200 mg/kg; plasma collected 1, 3, 5, or 7 days after administration
[3] = Circulating plasma levels of fulvestrant at euthanasia, TamR Study 1 (LC/MS/MS); assay type: in vivo, Nu:J mice; settings: female, Nu/J, mouse, subcutaneous
[4] = system: ER target genes AGR2, AGR3, and KRT13; experiment: RT-qPCR of tamoxifen responsive ER target genes in TamR tumors; assay type: in vivo, Nu:J mice
uterus = experiment: Uterine wet weight in LTED tumor bearing mice; assay type: in vivo, Nu:J mice; settings: ovariectomized LTED tumor bearing mice, after 4 weeks of treatment at the LTED study doses
[5] = system: HCC1428 breast cancer xenograft tumors; experiment: HCC1428 Study: growth of estrogen dependent xenograft tumors; assay type: in vivo, Nu:J mice; settings: 25 mg/kg sc qw, 4 weeks; ovariectomized mice receiving oral estradiol
[6] = current clinical protocol; cited from earlier work
breast cancer [7] = settings: 250 mg monthly; patients that had already progressed during AI treatment; cited from earlier work
ER = settings: months of treatment with originally approved 250 mg/month regimen; cited from earlier work
breast cancer [8] = settings: 500 vs 250 mg/month, loading regimen 500 mg on d1, d14, d29; cited from earlier work
estrogen receptor (ER) [9] = biological target: T1, estrogen receptor (ER) (Homo sapiens, UniProt P03372); experiment: Immunoblot of ER levels in HCC1428 tumors; settings: 25 mg/kg sc qw, 4 weeks
T1 sequence (P03372 1-595): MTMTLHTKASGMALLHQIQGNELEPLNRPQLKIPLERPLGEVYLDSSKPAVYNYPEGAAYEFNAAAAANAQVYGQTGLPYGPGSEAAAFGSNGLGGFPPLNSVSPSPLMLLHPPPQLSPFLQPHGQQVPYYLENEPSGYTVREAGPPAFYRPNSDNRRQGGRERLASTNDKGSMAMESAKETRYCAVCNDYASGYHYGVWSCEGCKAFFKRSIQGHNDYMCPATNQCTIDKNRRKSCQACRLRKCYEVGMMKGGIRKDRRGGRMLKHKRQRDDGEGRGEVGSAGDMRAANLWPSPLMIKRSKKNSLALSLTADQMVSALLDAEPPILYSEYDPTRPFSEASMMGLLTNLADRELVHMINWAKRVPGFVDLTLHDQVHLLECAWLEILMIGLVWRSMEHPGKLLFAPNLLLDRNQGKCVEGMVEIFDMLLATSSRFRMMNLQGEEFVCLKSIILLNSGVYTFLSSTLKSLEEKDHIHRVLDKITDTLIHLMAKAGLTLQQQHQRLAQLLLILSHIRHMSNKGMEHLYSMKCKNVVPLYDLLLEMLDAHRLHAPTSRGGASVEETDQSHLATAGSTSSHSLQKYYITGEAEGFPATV

estrogen receptor (ER) [10] = biological target: T1, estrogen receptor (ER); experiment: Immunoblot of ER levels in TamR tumors, Study 1; settings: 28 days of treatment
[11] = all doses administered (25-200 mg/kg)

## C[C@]12CC[C@@H]3c4ccc(O)cc4C[C@@H](CCCCCCCCC[S+]([O-])CCCC(F)(F)C(F)(F)F)[C@H]3[C@@H]1CC[C@@H]2O (stereo partly shown) [Fulvestrant, fulvestrant]
[1]; 4 weekly injections of 25, 50, 100, or 200 mg/kg (all doses), no significant differences between doses
  Inhibition of TamR tumor growth vs vehicle control: significant inhibition of tumor growth
[1]; fulvestrant 25 mg/kg sc weekly, day 0 of treatment
  % tumor growth inhibition of TamR tumors: −1%
[1]; fulvestrant 25 mg/kg sc weekly, day 2 of treatment
  % tumor growth inhibition of TamR tumors: 25%
[1]; fulvestrant 25 mg/kg sc weekly, day 4 of treatment
  % tumor growth inhibition of TamR tumors: 20%
[1]; fulvestrant 25 mg/kg sc weekly, day 7 of treatment
  % tumor growth inhibition of TamR tumors: 21%
[1]; fulvestrant 25 mg/kg sc weekly, day 9 of treatment
  % tumor growth inhibition of TamR tumors: 18%
[1]; fulvestrant 25 mg/kg sc weekly, day 11 of treatment
  % tumor growth inhibition of TamR tumors: 24%
[1]; fulvestrant 25 mg/kg sc weekly, day 14 of treatment
  % tumor growth inhibition of TamR tumors: 33%
[1]; fulvestrant 25 mg/kg sc weekly, day 16 of treatment
  % tumor growth inhibition of TamR tumors: 29%
[1]; fulvestrant 25 mg/kg sc weekly, day 18 of treatment
  % tumor growth inhibition of TamR tumors: 39%
[1]; fulvestrant 25 mg/kg sc weekly, day 21 of treatment
  % tumor growth inhibition of TamR tumors: 44%
[1]; fulvestrant 25 mg/kg sc weekly, day 23 of treatment
  % tumor growth inhibition of TamR tumors: 45%
[1]; fulvestrant 25 mg/kg sc weekly, day 25 of treatment
  % tumor growth inhibition of TamR tumors: 47%
[1]; fulvestrant 25 mg/kg sc weekly, day 28 of treatment
  % tumor growth inhibition of TamR tumors: 47%
[1]; fulvestrant 50 mg/kg sc weekly, day 0 of treatment
  % tumor growth inhibition of TamR tumors: −1%
[1]; fulvestrant 50 mg/kg sc weekly, day 2 of treatment
  % tumor growth inhibition of TamR tumors: 24%
[1]; fulvestrant 50 mg/kg sc weekly, day 4 of treatment
  % tumor growth inhibition of TamR tumors: 20%
[1]; fulvestrant 50 mg/kg sc weekly, day 7 of treatment
  % tumor growth inhibition of TamR tumors: 26%
[1]; fulvestrant 50 mg/kg sc weekly, day 9 of treatment
  % tumor growth inhibition of TamR tumors: 28%
[1]; fulvestrant 50 mg/kg sc weekly, day 11 of treatment
  % tumor growth inhibition of TamR tumors: 31%
[1]; fulvestrant 50 mg/kg sc weekly, day 14 of treatment
  % tumor growth inhibition of TamR tumors: 37%
[1]; fulvestrant 50 mg/kg sc weekly, day 16 of treatment
  % tumor growth inhibition of TamR tumors: 40%
[1]; fulvestrant 50 mg/kg sc weekly, day 18 of treatment
  % tumor growth inhibition of TamR tumors: 44%
[1]; fulvestrant 50 mg/kg sc weekly, day 21 of treatment
  % tumor growth inhibition of TamR tumors: 51%
[1]; fulvestrant 50 mg/kg sc weekly, day 23 of treatment
  % tumor growth inhibition of TamR tumors: 58%
[1]; fulvestrant 50 mg/kg sc weekly, day 25 of treatment
  % tumor growth inhibition of TamR tumors: 59%
[1]; fulvestrant 50 mg/kg sc weekly, day 28 of treatment
  % tumor growth inhibition of TamR tumors: 62%
[1]; fulvestrant 100 mg/kg sc weekly, day 0 of treatment
  % tumor growth inhibition of TamR tumors: −3%
[1]; fulvestrant 100 mg/kg sc weekly, day 2 of treatment
  % tumor growth inhibition of TamR tumors: 23%
[1]; fulvestrant 100 mg/kg sc weekly, day 4 of treatment
  % tumor growth inhibition of TamR tumors: 20%
[1]; fulvestrant 100 mg/kg sc weekly, day 7 of treatment
  % tumor growth inhibition of TamR tumors: 27%
[1]; fulvestrant 100 mg/kg sc weekly, day 9 of treatment
  % tumor growth inhibition of TamR tumors: 16%
[1]; fulvestrant 100 mg/kg sc weekly, day 11 of treatment
  % tumor growth inhibition of TamR tumors: 32%
[1]; fulvestrant 100 mg/kg sc weekly, day 14 of treatment
  % tumor growth inhibition of TamR tumors: 44%
[1]; fulvestrant 100 mg/kg sc weekly, day 16 of treatment
  % tumor growth inhibition of TamR tumors: 36%
[1]; fulvestrant 100 mg/kg sc weekly, day 18 of treatment
  % tumor growth inhibition of TamR tumors: 50%
[1]; fulvestrant 100 mg/kg sc weekly, day 21 of treatment
  % tumor growth inhibition of TamR tumors: 46%
[1]; fulvestrant 100 mg/kg sc weekly, day 23 of treatment
  % tumor growth inhibition of TamR tumors: 53%
[1]; fulvestrant 100 mg/kg sc weekly, day 25 of treatment
  % tumor growth inhibition of TamR tumors: 49%
[1]; fulvestrant 100 mg/kg sc weekly, day 28 of treatment
  % tumor growth inhibition of TamR tumors: 58%
[1]; fulvestrant 200 mg/kg sc weekly, day 0 of treatment
  % tumor growth inhibition of TamR tumors: 2%
[1]; fulvestrant 200 mg/kg sc weekly, day 2 of treatment
  % tumor growth inhibition of TamR tumors: 28%
[1]; fulvestrant 200 mg/kg sc weekly, day 4 of treatment
  % tumor growth inhibition of TamR tumors: 24%
[1]; fulvestrant 200 mg/kg sc weekly, day 7 of treatment
  % tumor growth inhibition of TamR tumors: 24%
[1]; fulvestrant 200 mg/kg sc weekly, day 9 of treatment
  % tumor growth inhibition of TamR tumors: 25%
[1]; fulvestrant 200 mg/kg sc weekly, day 11 of treatment
  % tumor growth inhibition of TamR tumors: 39%
[1]; fulvestrant 200 mg/kg sc weekly, day 14 of treatment
  % tumor growth inhibition of TamR tumors: 47%
[1]; fulvestrant 200 mg/kg sc weekly, day 16 of treatment
  % tumor growth inhibition of TamR tumors: 48%
[1]; fulvestrant 200 mg/kg sc weekly, day 18 of treatment
  % tumor growth inhibition of TamR tumors: 53%
[1]; fulvestrant 200 mg/kg sc weekly, day 21 of treatment
  % tumor growth inhibition of TamR tumors: 61%
[1]; fulvestrant 200 mg/kg sc weekly, day 23 of treatment
  % tumor growth inhibition of TamR tumors: 66%
[1]; fulvestrant 200 mg/kg sc weekly, day 25 of treatment
  % tumor growth inhibition of TamR tumors: 67%
[1]; fulvestrant 200 mg/kg sc weekly, day 28 of treatment
  % tumor growth inhibition of TamR tumors: 74%
[2]
  Time of highest plasma level after single injection: highest levels detected one day after administration
[3]; 25 mg/kg
  concentration at 7 days after final dose: 34.6 ng/mL and 57 nM
[3]; 50 mg/kg
  concentration at 7 days after final dose: 64.9 ng/mL and 107 nM
[3]; 100 mg/kg
  concentration at 7 days after final dose: 95.6 ng/mL and 157 nM
[3]; 200 mg/kg
  concentration at 7 days after final dose: 207 ng/mL and 340 nM
[4]; [11]
  mRNA expression of anterior gradient protein 3 (AGR3) in TamR tumors: dramatic downregulation
  mRNA expression of keratin 13 (KRT13) in TamR tumors: dramatic downregulation
[4]; only for doses that resulted in quantitative downregulation of ER protein
  mRNA expression of AGR2 in TamR tumors: modest reduction in AGR2 expression
uterus
  Uterine wet weight (measure of uterine stimulation): non-significant trend toward reduced uterine weight
[5]
  Effect on HCC1428 xenograft tumor growth: Tumor stasis
[6]
  Cmax observed per current protocol in patients: ~28 ng/mL
Breast cancer [7]
  Response rate in the EFFECT trial: 7.4%
ER
  Patients exhibiting intratumoral [(18)F]fluoroestradiol (FES) binding during follow up PET scans: 30%
Breast cancer [8]
  Clinical response to higher dose with loading regimen: improved response rate and increased time to progression
Estrogen receptor (ER) [9]
  ER expression in HCC1428 tumors (western blotting): modest but significant downregulation of ER expression
Estrogen receptor (ER) [10]; 25 mg/kg dose
  ER downregulation in TamR tumors (immunoblot): did not result in significant ER downregulation
Estrogen receptor (ER) [10]; 50, 100, and 200 mg/kg doses
  ER downregulation in TamR tumors (immunoblot): Significant (p < 0.001) downregulation of ER
